Reference: patent publication US10722582B2, “Targeted antimicrobial photodynamic therapy” (Purdue Research Foundation, priority 2018, dated 2020)

What was measured:
Type in all cases: cell-based, Staphylococcus aureus
[1] = tested on: S. aureus (PCI 1203); test: Competitive hemin uptake assay (fluorescence microscopy); details: for Fluorescence after 15 min / Fluorescence after 15 min exposure + 1 equiv. hemin: Fe-deficient conditions (TS media containing 3 mM bipy), no background subtraction; for effect of hemin competition on uptake: one equivalent of hemin, 15 minutes of co-incubation
Description: To elucidate the relevant structural features for the specific uptake of Ga-PpIX by S. aureus, we performed a competitive uptake assay using one equivalent of hemin against Ga-PpIX, PpIX, and eleven other fluorescent PpIX derivatives, with evaluation by fluorescence microscopy after 15 minutes of co-incubation (FIG. 5 and Table 4). These studies were partly guided by insights taken from the X-ray structures of hemin and Ga-PpIX within the binding pocket of IsdH: (i) coordination of the metal center by an apical tyrosine residue; (ii) the flanking of vinyl groups on pyrrole rings A and B against nearby aromatic residues; and (iii) the extension and presumed hydration of the propionyl groups (rings C and D) outside of the binding pocket.
Bacteria were cultured and assayed in iron-deficient media unless otherwise noted. A stock solution of Ga-PpIX (14.6 μM) was prepared by dispersing 5 mg in 1 mL of 10% DMSO in PBS for 10 minutes in an ultrasonic cleaning bath protected from light, followed by filtration and 10× dilution in PBS just prior to use. Bacterial suspensions (0.5 mL) were treated with freshly prepared solutions of PpIX derivatives for specified periods (5-15 min), then harvested by centrifugation at 5.2 g for 5 minutes, redispersed twice in 0.5 mL deionized water, and centrifuged a third time. A 10-μL aliquot of concentrated bacteria was deposited onto a glass slide and dried in air for 20 min, then imaged by fluorescence microscopy as described above. For details on fluorescence image processing and quantitative analysis, see Supporting Information.
S. aureus (PCI 1203; ATCC 10537) was first cultured in standard TS broth, then in media containing 3 mM bipyridine. Bacteria were pelleted and washed with PBS buffer three times, then resuspended to a final concentration of 10^8 cfu/mL. Stock solutions of hemin and PpIX derivatives 1-13 were prepared at initial concentrations of 292 μM; hemin and fluorescent PpIX solutions were mixed in a 1:1 ratio (0.5 mL), then added to 0.5 mL of bacterial suspension and allowed to sit for 15 min at room temperature. For control studies, hemin or fluorophore solutions were substituted with PBS to maintain constant […]. Bacteria were harvested and washed as described above, then evaluated by fluorescence microscopy for relative uptake efficiency.
Darkfield and fluorescent images were acquired in succession, with the former used to map regions of interest (ROIs) by tracing the outlines of bacteria (FIG. 8). Three images were acquired for each sample; in each case, the tracing map was overlaid onto the fluorescence image to calculate pixel intensities within each ROI, using the mean pixel intensity for quantitative analysis. Bacteria were also imaged without treatment with PpIX analogs, most of which produced values close to that of background except for Salmonella enterica, which served as the upper limit of autofluorescence (cf. FIG. 4). Data collection and image analyses were performed by the same user to ensure consistency for comparative analysis.

[2] = tested on: S. aureus (PCI 1203; ATCC 10537); test: aPDI with CFL irradiation (406 nm), planktonic bacteria, drop-plate colony count; details: for potency relative to dark toxicity (0 min exposure): 3-log reduction
Description: The aPDI properties of Ga-PpIX were compared against PpIX, whose photosensitizer activities are well known and whose optical profile is similar to that of Ga-PpIX (FIG. 2).
All bacterial strains were cultured at 37° C. in an aerobic atmosphere unless otherwise noted. […] Bacterial counts were estimated in units of cfu/mL by plating serial dilutions onto agar plates, followed by incubation for 16 hours at 37° C. […] Further details and variations on iron-deficient culture conditions are provided in Supporting Information.
Antimicrobial assays were performed on planktonic bacteria at 10^7 cfu/mL with variable exposure times to CFL irradiation, followed by plating on agar and incubation at 37° C. […] The irradiated bacteria were plated onto agar in serial tenfold dilutions (10^7-10^1 cfu/mL); controls included one set of wells without photosensitizer, and one set of wells with photosensitizer but without 15 min irradiation, prior to plating (dark toxicity). Bacterial counts were determined by the drop-plate method using TS-agar plates, and reported in colony-forming units per milliliter (cfu/mL).
The irradiation source consisted of a 20-W compact fluorescent lightbulb (CFL; Sunlite SL20/BLB) housed in an ellipsoidal reflector dome.

[3] = tested on: S. aureus; test: Antibacterial activity assay with LED light
Description: (§1) Antibacterial activity assay general protocol: Used LED light to test conditions. Bacteria were grown in TS broth, followed by 3 mM bipyridine in TS broth until log phase. Bacteria were then diluted with PBS, to OD 0.1 (˜10^) and then to ˜10^7 cfu/mL. 100 uL of bacteria were placed in 96 well plates with the appropriate GaPpIX concentration. 2× serial dilutions were then done to obtain other GaPpIX concentrations. Each concentration was done in triplicate. Bacteria were left incubating and irradiating for different amount of times at different light powers or left in the dark. 10× Serial dilutions were done and bacteria were plated for colony counting using the drop-plate technique. Colonies were counted after 24 hours. As reported herein, a 3-log reduction equals measurable antimicrobial action; a 6-log reduction equals total eradication.
(§2) Stock solution preparation (AVM-3-36, 10 nm AgNP). Prepared a solution of (AVM-2-273) GaPpIX-apoHb 1 mg/mL in MP H2O, deaerated. Took 10 mL of 10 nm AgNPs, centrifuged at 900 G for 5 min (Beckman, 3100 RPM), took supernantant and added 200 uL of GaPpIXHb. After overnight, centrifuged 3000 RPM g for 5 minutes (Beckman). Took supernantant and centrifuged using a 100 K CentriCon tube at 4000 RPM for 5 minutes, 3×. Added 15 mM borate buffer to NPs. Based on calibration curve, the stock solution is 1.94 ug/mL AgNP, so stock: 79 μg/mL AgNP, 10.37 μg/mL GaPpIXHb, 0.446 μg/mL GaPpIX (refer to AVM-2-293A and AVM-3-3).
(§3) The following antibacterial activity measurements were assayed in the presence of AgNP.

[4] = tested on: MRSA383; test: Antibacterial activity assay with LED light; details: in the presence of 10 nm AgNP
Description: as §1, §2, §3

[5] = tested on: MRSA385; test: Antibacterial activity assay with LED light; details: in the presence of 10 nm AgNP
Description: as §1, §2, §3

[6] = tested on: MRSA386; test: Antibacterial activity assay with LED light; details: in the presence of 10 nm AgNP
Description: as §1, §2, §3

[7] = tested on: MRSA387; test: Antibacterial activity assay with LED light; details: in the presence of 10 nm AgNP
Description: as §1, §2, §3

[8] = tested on: S. aureus; test: aPDI with 405-nm LED bar, summary over strains; details: Ga-hemoglobin on 10-nm AgNP, 405-nm light, fluence about 1 J/cm^2
Description: as §1

[9] = tested on: S. aureus (PCI 1203); test: Competitive hemin uptake assay (fluorescence microscopy); details: standard conditions (TS media); no background subtraction

3,8-Diacetyldeuteroporphyrin dimethyl diester [DiAcDP diMe (12)]
Fluorescence after 15 min [1]: 20.9 a.u.
Fluorescence after 15 min exposure + 1 equiv. hemin [1]: 18.05 a.u.
effect of hemin competition on uptake [1]: less affected by hemin

CC1=C(CCC(=O)O)c2cc3[nH]c(cc4nc(cc5[nH]c(cc1n2)c(C)c5C(C)O)C(C)=C4C(C)O)c(C)c3CCC(=O)O (stereo not drawn) [HP (4), hematoporphyrin]
Fluorescence after 15 min [1]: 14.38 a.u.
Fluorescence after 15 min exposure + 1 equiv. hemin [1]: 9.58 a.u.

COC(=O)CCc1c(C)c2cc3nc(cc4nc(cc5[nH]c(cc1[nH]2)c(CCC(=O)OC)c5C)C(C(C)O)=C4C)C(C(C)O)=C3C (stereo not drawn) [HP diMe (8), HP dimethyl diester]
Fluorescence after 15 min [1]: 29.05 a.u.
Fluorescence after 15 min exposure + 1 equiv. hemin [1]: 26.9 a.u.

C=CC1=C(C)c2cc3[nH]c(cc4[nH]c(cc5nc(cc1n2)C(C)=C5C=C)c(C)c4CCC(=O)OC)c(CCC(=O)OC)c3C [PpIX diMe (7), PpIX dimethyl diester]
Fluorescence after 15 min [1]: 15.75 a.u.
Fluorescence after 15 min exposure + 1 equiv. hemin [1]: 12.75 a.u.

C[n+]1ccc(-c2c3nc(c(-c4cc[n+](C)cc4)c4ccc([nH]4)c(-c4cc[n+](C)cc4)c4nc(c(-c5cc[n+](C)cc5)c5ccc2[nH]5)C=C4)C=C3)cc1 [TMPyP, reference compound]
Antimicrobial activity (minimum 3-log CFU reduction) ([2]; 0 min (dark), no irradiation (dark toxicity)): < 7.4 μM
Antimicrobial activity (minimum 3-log CFU reduction) ([2]; 0 min (dark), no irradiation (dark toxicity), listed as TMPy): <7.4 μM
Antimicrobial activity (minimum 3-log CFU reduction) ([2]; 5 min CFL 406 nm, 12.4 mW/cm^2 (3.7 J/cm^2)): 0.92 μM
potency relative to dark toxicity (0 min exposure) ([2]; 5 min CFL): <8x
Antimicrobial activity (minimum 3-log CFU reduction) ([2]; 15 min CFL 406 nm, 12.4 mW/cm^2 (11.2 J/cm^2)): 0.23 μM
potency relative to dark toxicity (0 min exposure) ([2]; 15 min CFL): <32x
concentration for 3-log reduction (measurable antimicrobial action) [3]: 235 nM
concentration for 6-log reduction (total eradication) [3]: 940 nM

C=CC1=C(C)c2cc3[n-]c(cc4nc(cc5[n-]c(cc1n2)c(C)c5C=C)C(C)=C4CCC(=O)O)c(CCC(=O)O)c3C.[Zn+2] [Zn-PpIX (3), Zn-PpIX]
Fluorescence after 15 min [1]: 31.45 a.u.
Fluorescence after 15 min exposure + 1 equiv. hemin [1]: 16.87 a.u.
effect of hemin competition on uptake [1]: moderately affected by hemin

C=CC1=C(C)c2cc3[n-]c(cc4[n-]c(cc5nc(cc1n2)C(C)=C5C=C)c(C)c4CCC(=O)O)c(CCC(=O)O)c3C.[Cl-].[Fe+3] [hemin, Fe(III)-protoporphyrin IX, reference compound]
Fluorescence after 15 min [1]: 2.55 a.u.

Ga(III) diacetyldeuteroporphyrin (diAcDP) dimethyl diester [Ga-DiAcDP diMe (11)]
Fluorescence after 15 min [1]: 12.27 a.u.
Fluorescence after 15 min exposure + 1 equiv. hemin [1]: 11.85 a.u.
effect of hemin competition on uptake [1]: less affected by hemin

Ga(III)-PpIX dimethyl diester [Ga-PpIX diMe (6)]
Fluorescence after 15 min [1]: 60.55 a.u.
Fluorescence after 15 min exposure + 1 equiv. hemin [1]: 33.95 a.u.

GaPpIX/10 nm HbAgNP: GaPpIX added to apohemoglobin (Ga-hemoglobin) adsorbed onto 10-nm Ag nanoparticles
concentration for 3-log reduction [4]: 27 nM
concentration for 6-log reduction [4]: 79 nM
concentration for 3-log reduction [5]: 27 nM
concentration for 6-log reduction [5]: 109 nM
concentration for 3-log reduction [6]: 79 nM
concentration for 6-log reduction [6]: 158 nM
concentration for 3-log reduction [7]: 43 nM
concentration for 6-log reduction [7]: 218 nM
concentration for 3-log reduction ([3]; in the presence of 10 nm AgNP): 22 nM
concentration for 6-log reduction ([3]; in the presence of 10 nm AgNP): 27 nM
GaPpIX effective concentration (aPDI) [8]: 0.022 to 0.080 µM

Verteporfin [Verteporfin (13), reference compound]
Fluorescence after 15 min [1]: 30.75 a.u.
Fluorescence after 15 min exposure + 1 equiv. hemin [1]: 28 a.u.
effect of hemin competition on uptake [1]: less affected by hemin
Fluorescence after 15 min [9]: 25.82 a.u.
Fluorescence after 15 min exposure + 1 equiv. hemin [9]: 23.72 a.u.

Zn-HP [Zn-HP (5)]
Fluorescence after 15 min [1]: 29.2 a.u.
Fluorescence after 15 min exposure + 1 equiv. hemin [1]: 14.52 a.u.
effect of hemin competition on uptake [1]: moderately affected by hemin

di-O-acetyl-HP dimethyl diester [DiAcHP diMe (9)]
Fluorescence after 15 min [1]: 21.6 a.u.
Fluorescence after 15 min exposure + 1 equiv. hemin [1]: 18.95 a.u.
effect of hemin competition on uptake [1]: less affected by hemin

di-O-succinyl-HP dimethyl diester [DiSuccHP diMe (10)]
Fluorescence after 15 min [1]: 19.37 a.u.
Fluorescence after 15 min exposure + 1 equiv. hemin [1]: 16.9 a.u.
effect of hemin competition on uptake [1]: less affected by hemin
